Tests used:
Human δ-opioid (DOP) = target: T1, Human δ-opioid (DOP) (Homo sapiens, UniProt P41143); assay: Radioligand binding, human δ-opioid (DOP) membranes, FlashPlate, [3H]-Bremazocine; details: compound at 10 μM; for A1: inhibition of radioligand binding: [3H]-Bremazocine
T1 construct: purchased Perkin Elmer Biosignal
Outline: (§1)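 Cloned human receptor membranes were coated onto FlashPlate wells and incubated with radioligand and compound (added from a 0.5 mM DMSO daughter plate) for 1 hour at room temperature in the dark. Scintillation counting gave percent inhibition, with DMSO defining total and reference ligand defining non-specific binding.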

Human κ-Opioid (KOP) = target: T2, Human κ-Opioid (KOP) (Homo sapiens, UniProt P41145); assay: Radioligand binding, human κ-opioid (KOP) membranes, filtration, [3H]-Diprenorphine; details: compound at 10 μM; for A2: inhibition of radioligand binding: [3H]-Diprenorphine
T2 construct: purchased Perkin Elmer Biosignal
Outline: (§2)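 Percent inhibition of radioligand binding measured on recombinant human membranes: NK1 with [125I]-Substance P, KOP with [3H]-Diprenorphine. Incubation 1 h at room temperature, then harvest onto 0.3% PEI-soaked filters, cold Tris-HCl pH 7.4 washes and scintillation counting; non-specific binding from reference ligand wells.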

Human Melanocortin (MC3) = target: T3, Human Melanocortin (MC3) (Homo sapiens, UniProt P41968); assay: Radioligand binding, human melanocortin MC3 membranes, FlashPlate, [125I]-NDP-αMSH; details: compound at 10 μM; for A3: inhibition of radioligand binding: [125I]-NDP-αMSH
T3 construct: purchased Perkin Elmer Biosignal
Outline: as §1

Human Melanocortin (MC4) = target: T4, Human Melanocortin (MC4) (Homo sapiens, UniProt P32245); assay: Radioligand binding, human melanocortin MC4 membranes, FlashPlate, [125I]-NDP-αMSH; details: compound at 10 μM; for A4: inhibition of radioligand binding: [125I]-NDP-αMSH
T4 construct: purchased Perkin Elmer Biosignal
Outline: as §1

Human melanocortin (MC5) = target: T5, Human melanocortin (MC5) (Homo sapiens, UniProt P33032); assay: Radioligand binding, human melanocortin MC5 membranes, FlashPlate, [125I]-NDP-αMSH; details: compound at 10 μM; for A5: inhibition of radioligand binding: [125I]-NDP-αMSH
T5 construct: purchased Perkin Elmer Biosignal
Outline: as §1

[1] = target: T6, Human melanin-concentrating hormone (MCH1) (Homo sapiens, UniProt Q99705); assay: Radioligand binding, human melanin-concentrating hormone MCH1 membranes, FlashPlate, [125I]-S36057; details: compound at 10 μM
T6 construct: purchased Perkin Elmer Biosignal
Outline: as §1

Human μ-opioid (MOP) = target: T7, Human μ-opioid (MOP) (Homo sapiens, UniProt P35372); assay: Radioligand binding, human μ-opioid (MOP) membranes, FlashPlate, [3H]-Naloxone; details: compound at 10 μM; for A7: inhibition of radioligand binding: [3H]-Naloxone
T7 construct: purchased Perkin Elmer Biosignal
Outline: as §1

Human neurokinin (NK1) = target: T8, Human neurokinin (NK1) (Homo sapiens, UniProt P25103); assay: Radioligand binding, human neurokinin NK1 membranes, filtration, [125I]-Substance P; details: compound at 10 μM; for A8: inhibition of radioligand binding: [125I]-Substance P
T8 construct: purchased Perkin Elmer Biosignal
Outline: as §2

[2] = target: T9, Human neuropeptide Y (NPY-Y1) (Homo sapiens, UniProt P25929); assay: Radioligand binding, human neuropeptide Y NPY-Y1 membranes, FlashPlate, [125I]-PYY; details: compound at 10 μM; for A9: inhibition of radioligand binding: [125I]-PYY
T9 construct: purchased Perkin Elmer Biosignal
T9 sequence (P25929 1-384): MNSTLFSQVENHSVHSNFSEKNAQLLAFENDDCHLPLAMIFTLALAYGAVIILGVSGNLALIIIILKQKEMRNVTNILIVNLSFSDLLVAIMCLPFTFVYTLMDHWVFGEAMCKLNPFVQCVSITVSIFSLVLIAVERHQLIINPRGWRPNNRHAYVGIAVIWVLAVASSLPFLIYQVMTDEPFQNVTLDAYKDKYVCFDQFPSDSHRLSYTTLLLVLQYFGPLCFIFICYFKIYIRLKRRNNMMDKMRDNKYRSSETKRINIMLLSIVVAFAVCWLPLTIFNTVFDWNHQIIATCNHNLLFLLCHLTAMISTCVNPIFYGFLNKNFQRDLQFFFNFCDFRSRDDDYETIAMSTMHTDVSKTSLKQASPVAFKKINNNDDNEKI
Outline: as §1

Human opioid (ORL1) = target: T10, Human opioid (ORL1) (Homo sapiens, UniProt P41146); assay: Radioligand binding, human opioid ORL1 membranes, FlashPlate, [125I]-Nociceptin; details: compound at 10 μM; for A10: inhibition of radioligand binding: [125I]-Nociceptin
T10 construct: purchased Perkin Elmer Biosignal
Outline: as §1

Mouse urotensin (mUR2) = target: T11, Mouse urotensin (mUR2) (Mus musculus, UniProt Q8VIH9); assay: Radioligand binding, mouse urotensin mUR2 membranes, FlashPlate, [125I]-Urotensin II; details: compound at 10 μM; for A11: inhibition of radioligand binding: [125I]-Urotensin II
T11 construct: purchased Perkin Elmer Biosignal
T11 sequence (Q8VIH9 1-385): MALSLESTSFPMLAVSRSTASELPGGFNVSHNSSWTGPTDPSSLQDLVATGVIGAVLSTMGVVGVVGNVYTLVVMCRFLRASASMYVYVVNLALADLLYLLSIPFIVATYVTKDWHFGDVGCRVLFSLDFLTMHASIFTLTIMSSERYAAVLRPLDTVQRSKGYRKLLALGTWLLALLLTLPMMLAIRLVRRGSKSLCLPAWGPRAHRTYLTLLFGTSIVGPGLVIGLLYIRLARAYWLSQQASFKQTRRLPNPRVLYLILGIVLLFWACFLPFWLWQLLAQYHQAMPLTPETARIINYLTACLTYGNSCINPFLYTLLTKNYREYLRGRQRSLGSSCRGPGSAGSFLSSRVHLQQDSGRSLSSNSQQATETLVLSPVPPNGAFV
Outline: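 Cloned mouse urotensin (mUR2) receptor membranes from Perkin Elmer Biosignal were immobilized in FlashPlate microplates using a proprietary coating. Each well got 19.5 μl buffer, then 0.5 μl of DMSO, reference ligand, or compound. Adding 5 μl of [125I]-Urotensin II, diluted to 5× final concentration in binding buffer, started binding. Plates were sealed with TopSeal-A and incubated 1 hour at room temperature in the dark. Wells were counted for 30 seconds each on a TopCount after a 60-second delay, and percentage inhibition was calculated.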

T8 sequence (P25103 whole entry): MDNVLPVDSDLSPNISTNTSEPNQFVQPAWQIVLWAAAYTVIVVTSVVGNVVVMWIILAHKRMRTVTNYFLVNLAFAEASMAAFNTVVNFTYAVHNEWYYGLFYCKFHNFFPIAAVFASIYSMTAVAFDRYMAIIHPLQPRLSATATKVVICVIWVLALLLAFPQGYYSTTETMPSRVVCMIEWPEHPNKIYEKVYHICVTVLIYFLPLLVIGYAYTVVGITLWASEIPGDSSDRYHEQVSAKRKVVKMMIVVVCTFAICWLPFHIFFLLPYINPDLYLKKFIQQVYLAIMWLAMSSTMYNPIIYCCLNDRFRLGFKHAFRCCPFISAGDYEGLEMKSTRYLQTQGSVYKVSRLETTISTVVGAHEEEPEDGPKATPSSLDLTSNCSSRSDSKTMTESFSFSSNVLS
T2 sequence (P41145 whole entry): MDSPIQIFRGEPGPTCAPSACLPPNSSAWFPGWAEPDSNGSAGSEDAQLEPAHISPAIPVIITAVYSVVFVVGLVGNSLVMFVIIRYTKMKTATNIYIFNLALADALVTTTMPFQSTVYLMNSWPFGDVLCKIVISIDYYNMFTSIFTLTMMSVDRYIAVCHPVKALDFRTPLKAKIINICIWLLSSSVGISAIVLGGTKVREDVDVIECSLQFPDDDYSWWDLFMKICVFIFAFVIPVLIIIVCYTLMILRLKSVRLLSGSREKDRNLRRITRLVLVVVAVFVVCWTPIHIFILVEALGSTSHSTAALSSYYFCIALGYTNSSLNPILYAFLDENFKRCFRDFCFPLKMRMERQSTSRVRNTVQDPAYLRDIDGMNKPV
T5 sequence (P33032 whole entry): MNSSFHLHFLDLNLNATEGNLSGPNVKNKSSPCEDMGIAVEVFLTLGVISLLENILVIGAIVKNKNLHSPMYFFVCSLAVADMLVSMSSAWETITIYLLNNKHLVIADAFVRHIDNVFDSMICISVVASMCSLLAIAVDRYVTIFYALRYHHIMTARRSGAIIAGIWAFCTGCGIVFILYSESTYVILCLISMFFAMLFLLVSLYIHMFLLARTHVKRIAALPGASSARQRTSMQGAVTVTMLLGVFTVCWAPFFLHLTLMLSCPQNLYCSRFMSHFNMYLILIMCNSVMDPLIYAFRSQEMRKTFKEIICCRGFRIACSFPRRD
T7 sequence (P35372 whole entry): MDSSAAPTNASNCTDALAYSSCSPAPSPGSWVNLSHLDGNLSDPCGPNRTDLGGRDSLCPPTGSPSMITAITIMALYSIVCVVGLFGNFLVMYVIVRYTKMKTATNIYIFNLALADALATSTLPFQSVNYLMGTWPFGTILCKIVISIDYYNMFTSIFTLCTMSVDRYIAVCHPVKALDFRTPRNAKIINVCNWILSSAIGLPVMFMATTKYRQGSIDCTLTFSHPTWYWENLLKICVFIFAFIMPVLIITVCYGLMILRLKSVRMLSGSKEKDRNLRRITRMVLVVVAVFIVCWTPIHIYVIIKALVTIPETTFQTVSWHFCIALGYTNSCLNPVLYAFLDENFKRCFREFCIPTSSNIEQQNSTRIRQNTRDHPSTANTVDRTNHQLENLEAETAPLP
T4 sequence (P32245 whole entry): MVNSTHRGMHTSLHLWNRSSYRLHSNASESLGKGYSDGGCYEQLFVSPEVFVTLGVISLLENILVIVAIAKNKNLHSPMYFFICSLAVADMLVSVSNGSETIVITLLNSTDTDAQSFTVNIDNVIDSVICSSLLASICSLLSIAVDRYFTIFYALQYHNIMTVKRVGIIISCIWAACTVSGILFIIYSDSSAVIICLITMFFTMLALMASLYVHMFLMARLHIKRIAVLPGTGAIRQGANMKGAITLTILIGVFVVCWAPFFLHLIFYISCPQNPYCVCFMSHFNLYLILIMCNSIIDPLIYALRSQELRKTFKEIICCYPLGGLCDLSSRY
T6 sequence (Q99705 whole entry): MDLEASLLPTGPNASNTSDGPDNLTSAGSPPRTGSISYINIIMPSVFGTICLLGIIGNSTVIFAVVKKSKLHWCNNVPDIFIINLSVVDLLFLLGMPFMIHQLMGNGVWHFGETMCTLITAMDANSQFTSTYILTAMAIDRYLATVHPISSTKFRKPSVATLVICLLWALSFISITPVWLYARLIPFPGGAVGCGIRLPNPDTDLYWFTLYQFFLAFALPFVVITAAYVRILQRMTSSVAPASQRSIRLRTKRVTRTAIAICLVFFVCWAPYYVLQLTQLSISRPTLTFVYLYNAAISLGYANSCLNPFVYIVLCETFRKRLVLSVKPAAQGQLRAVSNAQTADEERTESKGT
T3 sequence (P41968 whole entry): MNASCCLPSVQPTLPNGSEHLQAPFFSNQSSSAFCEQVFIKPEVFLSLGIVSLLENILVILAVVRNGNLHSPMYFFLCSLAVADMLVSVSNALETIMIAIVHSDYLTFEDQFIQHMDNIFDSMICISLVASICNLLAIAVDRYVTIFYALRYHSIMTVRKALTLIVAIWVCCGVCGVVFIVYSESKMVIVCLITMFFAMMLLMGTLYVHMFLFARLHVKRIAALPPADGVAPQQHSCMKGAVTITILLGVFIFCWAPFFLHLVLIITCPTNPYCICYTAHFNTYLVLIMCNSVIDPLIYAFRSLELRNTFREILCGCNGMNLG
T10 sequence (P41146 whole entry): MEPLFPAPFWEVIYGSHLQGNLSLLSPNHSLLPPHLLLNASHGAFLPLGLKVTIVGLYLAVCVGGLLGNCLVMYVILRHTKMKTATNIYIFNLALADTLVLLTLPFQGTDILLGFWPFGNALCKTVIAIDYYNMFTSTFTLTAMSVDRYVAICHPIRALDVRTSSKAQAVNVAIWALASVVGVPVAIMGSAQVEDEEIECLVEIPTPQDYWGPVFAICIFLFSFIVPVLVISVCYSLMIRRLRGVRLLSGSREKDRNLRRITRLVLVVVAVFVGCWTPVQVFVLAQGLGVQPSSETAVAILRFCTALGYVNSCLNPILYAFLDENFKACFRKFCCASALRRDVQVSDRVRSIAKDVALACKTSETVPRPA
T1 sequence (P41143 whole entry): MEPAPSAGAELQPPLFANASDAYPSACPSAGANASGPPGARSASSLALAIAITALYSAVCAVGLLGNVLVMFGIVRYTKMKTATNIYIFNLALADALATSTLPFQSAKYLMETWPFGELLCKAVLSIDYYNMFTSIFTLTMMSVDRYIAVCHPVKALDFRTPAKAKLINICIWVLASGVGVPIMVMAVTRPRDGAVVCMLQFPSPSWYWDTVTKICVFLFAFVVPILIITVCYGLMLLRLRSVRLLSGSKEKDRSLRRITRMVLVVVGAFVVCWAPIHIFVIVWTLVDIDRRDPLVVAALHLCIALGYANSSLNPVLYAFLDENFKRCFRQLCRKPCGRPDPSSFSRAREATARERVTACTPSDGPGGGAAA

With NCCC(=O)N[C@H]1C(OCc2ccc3ccccc3c2)O[C@H](COCc2ccccc2)[C@@H](O)[C@@H]1OCc1ccc2ccccc2c1 (stereo partly drawn) [compound 445] the “A1: inhibition of radioligand binding” value (Human δ-opioid (DOP); human DOP membranes) was “− (“−” indicates less than 50% inhibition at 10 μM)”, the “A2: inhibition of radioligand binding” value (Human κ-Opioid (KOP); human KOP membranes, 10 µM) was “+ (“+” indicates greater than 50% inhibition at 10 μM)” and the “A3: inhibition of radioligand binding” value (Human Melanocortin (MC3); human MC3 membranes, 10 µM) was “+ (“+” indicates greater than 50% inhibition at 10 μM)”. The “A4: inhibition of radioligand binding” value (Human Melanocortin (MC4); human MC4 membranes, 10 µM) was “+ (“+” indicates greater than 50% inhibition at 10 μM)”, the “A5: inhibition of radioligand binding” value (Human melanocortin (MC5); human MC5 membranes, 10 µM) was “+ (“+” indicates greater than 50% inhibition at 10 μM)” and the “A6: inhibition of radioligand binding” value ([1]; [125I]-S36057, human MCH1 membranes, 10 µM) was “+ (“+” indicates greater than 50% inhibition at 10 μM)”. The “A7: inhibition of radioligand binding” value (Human μ-opioid (MOP); human MOP membranes, 10 µM) was “+ (“+” indicates greater than 50% inhibition at 10 μM)”, the “A8: inhibition of radioligand binding” value (Human neurokinin (NK1); human NK1 membranes) was “+ (“+” indicates greater than 50% inhibition at 10 μM)” and the “A9: inhibition of radioligand binding” value ([2]; human NPY-Y1 membranes) was “− (“−” indicates less than 50% inhibition at 10 μM)”. For the same compound, the “A10: inhibition of radioligand binding” value (Human opioid (ORL1); human ORL1 membranes, 10 µM) was “+ (“+” indicates greater than 50% inhibition at 10 μM)” and the “A11: inhibition of radioligand binding” value (Mouse urotensin (mUR2); mouse mUR2 membranes) was “− (“−” indicates less than 50% inhibition at 10 μM)”.

CO[C@H]1[C@H](O)[C@@H](COCc2ccc3ccccc3c2)OC(OCc2ccc3ccccc3c2)[C@@H]1NC(=O)CNC(=N)N (stereo partly drawn) [compound 70] was tested, and the “A1 radioligand binding inhibition” value (Human δ-opioid (DOP); human δ-opioid (DOP) membranes) was “− (“−” indicates less than 50% inhibition at 10 μM)”, the “A2 radioligand binding inhibition” value (Human κ-Opioid (KOP); human κ-opioid (KOP) membranes) was “− (“−” indicates less than 50% inhibition at 10 μM)” and the “A3 radioligand binding inhibition” value (Human Melanocortin (MC3); human melanocortin MC3 membranes) was “+ (“+” indicates greater than 50% inhibition at 10 μM)”. For the same compound, the “A4 radioligand binding inhibition” value (Human Melanocortin (MC4); human melanocortin MC4 membranes) was “+ (“+” indicates greater than 50% inhibition at 10 μM)”, the “A5 radioligand binding inhibition” value (Human melanocortin (MC5); human melanocortin MC5 membranes) was “+ (“+” indicates greater than 50% inhibition at 10 μM)” and the “A6 radioligand binding inhibition” value ([1]; human MCH1 membranes) was “− (“−” indicates less than 50% inhibition at 10 μM)”. For the same compound, the “A7 radioligand binding inhibition” value (Human μ-opioid (MOP); human μ-opioid (MOP) membranes) was “+ (“+” indicates greater than 50% inhibition at 10 μM)”, the “A8 radioligand binding inhibition” value (Human neurokinin (NK1); human neurokinin NK1 membranes) was “+ (“+” indicates greater than 50% inhibition at 10 μM)” and the “A9 radioligand binding inhibition” value ([2]; human NPY-Y1 membranes) was “− (“−” indicates less than 50% inhibition at 10 μM)”. The “A10 radioligand binding inhibition” value (Human opioid (ORL1); human ORL1 membranes) was “− (“−” indicates less than 50% inhibition at 10 μM)” and the “A11 radioligand binding inhibition” value (Mouse urotensin (mUR2); mouse urotensin mUR2 membranes) was “− (“−” indicates less than 50% inhibition at 10 μM)”.

With CSC1OC(COCc2ccccc2)C(O)C(OCc2ccc(Cl)cc2)C1NC(=O)CNC(=N)N (stereo not drawn) [compound 265] the “A1: inhibition of radioligand binding” value (Human δ-opioid (DOP); FlashPlate) was “− (“−” indicates less than 50% inhibition at 10 μM)”, the “A2: inhibition of radioligand binding” value (Human κ-Opioid (KOP); filtration) was “− (“−” indicates less than 50% inhibition at 10 μM)” and the “A3: inhibition of radioligand binding” value (Human Melanocortin (MC3); FlashPlate) was “− (“−” indicates less than 50% inhibition at 10 μM)”. The “A4: inhibition of radioligand binding” value (Human Melanocortin (MC4); FlashPlate) was “+ (“+” indicates greater than 50% inhibition at 10 μM)”, the “A5: inhibition of radioligand binding” value (Human melanocortin (MC5); FlashPlate) was “− (“−” indicates less than 50% inhibition at 10 μM)” and the “A6: inhibition of radioligand binding” value ([1]; [125I]-S36057, FlashPlate) was “− (“−” indicates less than 50% inhibition at 10 μM)”. For the same compound, the “A7: inhibition of radioligand binding” value (Human μ-opioid (MOP); FlashPlate) was “− (“−” indicates less than 50% inhibition at 10 μM)”, the “A8: inhibition of radioligand binding” value (Human neurokinin (NK1); filtration) was “+ (“+” indicates greater than 50% inhibition at 10 μM)” and the “A9: inhibition of radioligand binding” value ([2]; FlashPlate) was “− (“−” indicates less than 50% inhibition at 10 μM)”. For the same compound, the “A10: inhibition of radioligand binding” value (Human opioid (ORL1); FlashPlate) was “− (“−” indicates less than 50% inhibition at 10 μM)” and the “A11: inhibition of radioligand binding” value (Mouse urotensin (mUR2); FlashPlate) was “− (“−” indicates less than 50% inhibition at 10 μM)”.
